Measurements as given in ChEMBL document CHEMBL1649134, “Occurrence of efflux mechanism and cephalosporinase variant in a population of Enterobacter aerogenes and Klebsiella pneumoniae isolates producing extended-spectrum beta-lactamases” (2009).
Values after ≈ are worked out from the molar mass of the structure shown.

Assays:
Assay type in all cases: functional
Klebsiella pneumoniae [1] = experiment: Antimicrobial activity against multidrug resistant Klebsiella pneumoniae isolate 8 by broth dilution method
Klebsiella aerogenes [2] = experiment: Antimicrobial activity against multidrug resistant Enterobacter aerogenes isolate 7 by broth dilution method in presence of 26.3 mg/L efflux pump inhibitor phenylalanine-arginine-beta-naphthylamide
Klebsiella aerogenes [3] = experiment: Antimicrobial activity against multidrug resistant Enterobacter aerogenes isolate 2 by broth dilution method
Klebsiella aerogenes [4] = experiment: Antimicrobial activity against multidrug resistant Enterobacter aerogenes isolate 11 by broth dilution method in presence of 26.3 mg/L efflux pump inhibitor phenylalanine-arginine-beta-naphthylamide
Klebsiella pneumoniae [5] = experiment: Antimicrobial activity against multidrug resistant Klebsiella pneumoniae isolate 6 by broth dilution method
Klebsiella pneumoniae [6] = experiment: Antimicrobial activity against multidrug resistant Klebsiella pneumoniae isolate 12 by broth dilution method in presence of 26.3 mg/L efflux pump inhibitor phenylalanine-arginine-beta-naphthylamide
Klebsiella aerogenes [7] = experiment: Antimicrobial activity against multidrug resistant Enterobacter aerogenes isolate 24 by broth dilution method
Klebsiella aerogenes [8] = experiment: Antimicrobial activity against multidrug resistant Enterobacter aerogenes isolate 20 by broth dilution method
Klebsiella aerogenes [9] = experiment: Antimicrobial activity against multidrug resistant Enterobacter aerogenes isolate 16 by broth dilution method in presence of 26.3 mg/L efflux pump inhibitor phenylalanine-arginine-beta-naphthylamide
Klebsiella pneumoniae [10] = experiment: Antimicrobial activity against multidrug resistant Klebsiella pneumoniae isolate 2 by broth dilution method
Klebsiella aerogenes [11] = experiment: Antimicrobial activity against multidrug resistant Enterobacter aerogenes isolate 26 by broth dilution method in presence of 26.3 mg/L efflux pump inhibitor phenylalanine-arginine-beta-naphthylamide
Klebsiella aerogenes [12] = experiment: Antimicrobial activity against multidrug resistant Enterobacter aerogenes isolate 1 by broth dilution method in presence of 26.3 mg/L efflux pump inhibitor phenylalanine-arginine-beta-naphthylamide
Klebsiella pneumoniae [13] = experiment: Antimicrobial activity against multidrug resistant Klebsiella pneumoniae isolate 12 by broth dilution method
Klebsiella aerogenes [14] = experiment: Antimicrobial activity against multidrug resistant Enterobacter aerogenes isolate 17 by broth dilution method in presence of 26.3 mg/L efflux pump inhibitor phenylalanine-arginine-beta-naphthylamide
Klebsiella pneumoniae [15] = experiment: Antimicrobial activity against multidrug resistant Klebsiella pneumoniae isolate 11 by broth dilution method in presence of 26.3 mg/L efflux pump inhibitor phenylalanine-arginine-beta-naphthylamide
Klebsiella aerogenes [16] = experiment: Antimicrobial activity against multidrug resistant Enterobacter aerogenes isolate 4 by broth dilution method in presence of 26.3 mg/L efflux pump inhibitor phenylalanine-arginine-beta-naphthylamide
Klebsiella aerogenes [17] = experiment: Antimicrobial activity against multidrug resistant Enterobacter aerogenes isolate 10 by broth dilution method
Klebsiella pneumoniae [18] = experiment: Antimicrobial activity against multidrug resistant Klebsiella pneumoniae isolate 16 by broth dilution method in presence of 26.3 mg/L efflux pump inhibitor phenylalanine-arginine-beta-naphthylamide
Klebsiella aerogenes [19] = experiment: Antimicrobial activity against multidrug resistant Enterobacter aerogenes isolate 15 by broth dilution method
Klebsiella pneumoniae [20] = experiment: Antimicrobial activity against multidrug resistant Klebsiella pneumoniae isolate 15 by broth dilution method in presence of 26.3 mg/L efflux pump inhibitor phenylalanine-arginine-beta-naphthylamide
Klebsiella aerogenes [21] = experiment: Antimicrobial activity against multidrug resistant Enterobacter aerogenes isolate 2 by broth dilution method in presence of 26.3 mg/L efflux pump inhibitor phenylalanine-arginine-beta-naphthylamide
Klebsiella aerogenes [22] = experiment: Antimicrobial activity against multidrug resistant Enterobacter aerogenes isolate 22 by broth dilution method in presence of 26.3 mg/L efflux pump inhibitor phenylalanine-arginine-beta-naphthylamide
Klebsiella pneumoniae [23] = experiment: Antimicrobial activity against multidrug resistant Klebsiella pneumoniae isolate 14 by broth dilution method in presence of 26.3 mg/L efflux pump inhibitor phenylalanine-arginine-beta-naphthylamide
Klebsiella aerogenes [24] = experiment: Antimicrobial activity against multidrug resistant Enterobacter aerogenes isolate 12 by broth dilution method in presence of 26.3 mg/L efflux pump inhibitor phenylalanine-arginine-beta-naphthylamide
Klebsiella pneumoniae [25] = experiment: Antimicrobial activity against multidrug resistant Klebsiella pneumoniae isolate 14 by broth dilution method
Klebsiella aerogenes [26] = experiment: Antimicrobial activity against multidrug resistant Enterobacter aerogenes isolate 25 by broth dilution method in presence of 26.3 mg/L efflux pump inhibitor phenylalanine-arginine-beta-naphthylamide
Klebsiella pneumoniae [27] = experiment: Antimicrobial activity against multidrug resistant Klebsiella pneumoniae isolate 10 by broth dilution method in presence of 26.3 mg/L efflux pump inhibitor phenylalanine-arginine-beta-naphthylamide
Klebsiella aerogenes [28] = experiment: Antimicrobial activity against multidrug resistant Enterobacter aerogenes isolate 27 by broth dilution method in presence of 26.3 mg/L efflux pump inhibitor phenylalanine-arginine-beta-naphthylamide
Klebsiella pneumoniae [29] = experiment: Antimicrobial activity against multidrug resistant Klebsiella pneumoniae isolate 4 by broth dilution method
Klebsiella aerogenes [30] = experiment: Antimicrobial activity against multidrug resistant Enterobacter aerogenes isolate 22 by broth dilution method
Klebsiella pneumoniae [31] = experiment: Antimicrobial activity against multidrug resistant Klebsiella pneumoniae ATCC 11296 by broth dilution method
Klebsiella pneumoniae [32] = experiment: Antimicrobial activity against multidrug resistant Klebsiella pneumoniae isolate 15 by broth dilution method
Klebsiella aerogenes [33] = experiment: Antimicrobial activity against multidrug resistant Enterobacter aerogenes isolate 23 by broth dilution method in presence of 26.3 mg/L efflux pump inhibitor phenylalanine-arginine-beta-naphthylamide
Klebsiella aerogenes [34] = experiment: Antimicrobial activity against multidrug resistant Enterobacter aerogenes ATCC 15038 by broth dilution method in presence of 26.3 mg/L efflux pump inhibitor phenylalanine-arginine-beta-naphthylamide
Klebsiella aerogenes [35] = experiment: Antimicrobial activity against multidrug resistant Enterobacter aerogenes isolate 3 by broth dilution method in presence of 26.3 mg/L efflux pump inhibitor phenylalanine-arginine-beta-naphthylamide
Klebsiella aerogenes [36] = experiment: Antimicrobial activity against multidrug resistant Enterobacter aerogenes isolate 26 by broth dilution method
Klebsiella pneumoniae [37] = experiment: Antimicrobial activity against multidrug resistant Klebsiella pneumoniae isolate 3 by broth dilution method
Klebsiella pneumoniae [38] = experiment: Antimicrobial activity against multidrug resistant Klebsiella pneumoniae isolate 16 by broth dilution method
Klebsiella pneumoniae [39] = experiment: Antimicrobial activity against multidrug resistant Klebsiella pneumoniae isolate 11 by broth dilution method
Klebsiella pneumoniae [40] = experiment: Antimicrobial activity against multidrug resistant Klebsiella pneumoniae isolate 9 by broth dilution method in presence of 26.3 mg/L efflux pump inhibitor phenylalanine-arginine-beta-naphthylamide
Klebsiella aerogenes [41] = experiment: Antimicrobial activity against multidrug resistant Enterobacter aerogenes isolate 18 by broth dilution method in presence of 26.3 mg/L efflux pump inhibitor phenylalanine-arginine-beta-naphthylamide
Klebsiella aerogenes [42] = experiment: Antimicrobial activity against multidrug resistant Enterobacter aerogenes isolate 14 by broth dilution method in presence of 26.3 mg/L efflux pump inhibitor phenylalanine-arginine-beta-naphthylamide
Klebsiella aerogenes [43] = experiment: Antimicrobial activity against multidrug resistant Enterobacter aerogenes isolate 24 by broth dilution method in presence of 26.3 mg/L efflux pump inhibitor phenylalanine-arginine-beta-naphthylamide
Klebsiella pneumoniae [44] = experiment: Antimicrobial activity against multidrug resistant Klebsiella pneumoniae isolate 3 by broth dilution method in presence of 26.3 mg/L efflux pump inhibitor phenylalanine-arginine-beta-naphthylamide
Klebsiella aerogenes [45] = experiment: Antimicrobial activity against multidrug resistant Enterobacter aerogenes isolate 23 by broth dilution method
Klebsiella aerogenes [46] = experiment: Antimicrobial activity against multidrug resistant Enterobacter aerogenes isolate 14 by broth dilution method
Klebsiella aerogenes [47] = experiment: Antimicrobial activity against multidrug resistant Enterobacter aerogenes ATCC 15038 by broth dilution method
Klebsiella aerogenes [48] = experiment: Antimicrobial activity against multidrug resistant Enterobacter aerogenes isolate 16 by broth dilution method
Klebsiella aerogenes [49] = experiment: Antimicrobial activity against multidrug resistant Enterobacter aerogenes isolate 6 by broth dilution method

Compound: CN(C)[C@@H]1C(O)=C(C(N)=O)C(=O)[C@@]2(O)C(O)=C3C(=O)c4c(O)cccc4[C@@](C)(O)[C@H]3C[C@@H]12 [TETRACYCLINE]
- MIC (Klebsiella pneumoniae [1]): 2 µg/mL (≈ 4.5 µM)
- MIC (Klebsiella aerogenes [2]): 16 µg/mL
- MIC (Klebsiella aerogenes [3]): 64 µg/mL (≈ 144 µM)
- MIC (Klebsiella aerogenes [4]): 8 µg/mL
- MIC (Klebsiella pneumoniae [5]): 2 µg/mL (≈ 4.5 µM)
- MIC (Klebsiella pneumoniae [6]): 256 µg/mL
- MIC (Klebsiella aerogenes [7]): 64 µg/mL (≈ 144 µM)
- MIC (Klebsiella aerogenes [8]): 64 µg/mL (≈ 144 µM)
- MIC (Klebsiella aerogenes [9]): 2 µg/mL
- MIC (Klebsiella pneumoniae [10]): 64 µg/mL (≈ 144 µM)
- MIC (Klebsiella aerogenes [11]): 2 µg/mL
- MIC (Klebsiella aerogenes [12]): 8 µg/mL
- MIC (Klebsiella pneumoniae [13]): 2 µg/mL (≈ 4.5 µM)
- MIC (Klebsiella aerogenes [14]): 8 µg/mL
- MIC (Klebsiella pneumoniae [15]): 4 µg/mL
- MIC (Klebsiella aerogenes [16]): 8 µg/mL
- MIC (Klebsiella aerogenes [17]): 128 µg/mL (≈ 288 µM)
- MIC (Klebsiella pneumoniae [18]): 128 µg/mL
- MIC (Klebsiella aerogenes [19]): 64 µg/mL (≈ 144 µM)
- MIC (Klebsiella pneumoniae [20]): 128 µg/mL
- MIC (Klebsiella aerogenes [21]): 4 µg/mL
- MIC (Klebsiella aerogenes [22]): 4 µg/mL
- MIC (Klebsiella pneumoniae [23]): 256 µg/mL
- MIC (Klebsiella aerogenes [24]): 16 µg/mL
- MIC (Klebsiella pneumoniae [25]): 2 µg/mL (≈ 4.5 µM)
- MIC (Klebsiella aerogenes [26]): 4 µg/mL
- MIC (Klebsiella pneumoniae [27]): 256 µg/mL
- MIC (Klebsiella aerogenes [28]): 8 µg/mL
- MIC (Klebsiella pneumoniae [29]): 2 µg/mL (≈ 4.5 µM)
- MIC (Klebsiella aerogenes [30]): 128 µg/mL (≈ 288 µM)
- MIC (Klebsiella pneumoniae [31]): 2 µg/mL (≈ 4.5 µM)
- MIC (Klebsiella pneumoniae [32]): 2 µg/mL (≈ 4.5 µM)
- MIC (Klebsiella aerogenes [33]): 8 µg/mL
- MIC (Klebsiella aerogenes [34]): 0.5 µg/mL
- MIC (Klebsiella aerogenes [35]): 8 µg/mL
- MIC (Klebsiella aerogenes [36]): 32 µg/mL (≈ 72 µM)
- MIC (Klebsiella pneumoniae [37]): 4 µg/mL (≈ 9 µM)
- MIC (Klebsiella pneumoniae [38]): 4 µg/mL (≈ 9 µM)
- MIC (Klebsiella pneumoniae [39]): 4 µg/mL (≈ 9 µM)
- MIC (Klebsiella pneumoniae [40]): 128 µg/mL
- MIC (Klebsiella aerogenes [41]): 4 µg/mL
- MIC (Klebsiella aerogenes [42]): 16 µg/mL
- MIC (Klebsiella aerogenes [43]): 8 µg/mL
- MIC (Klebsiella pneumoniae [44]): 256 µg/mL
- MIC (Klebsiella aerogenes [45]): 64 µg/mL (≈ 144 µM)
- MIC (Klebsiella aerogenes [46]): 64 µg/mL (≈ 144 µM)
- MIC (Klebsiella aerogenes [47]): 1 µg/mL (≈ 2.25 µM)
- MIC (Klebsiella aerogenes [48]): 64 µg/mL (≈ 144 µM)
- MIC (Klebsiella aerogenes [49]): 4 µg/mL (≈ 9 µM)
